# Experimental data: patent US7135457B1, “Random peptides that bind to gastro-intestinal tract (GIT) transport receptors and related methods” (Cytogen Corporation, priority 1997, dated 2006)
# Peptide text beside a SMILES is read from it. * marks the point of attachment. Dansyl = CN(C)c1cccc2c(S(=O)(=O)*)cccc12
# Assays:
# [1] = tested on: P100 membrane fractions derived from Caco-2 cells; assay: Dansylated peptide ELISA on P100: PAX2 and HAX42 peptides relative binding
# Experimental: The peptides and proteins were analyzed by a dansylated peptide ELISA method in which 96 well plates were coated overnight at 4° C. with 100 μl/well coating protein (normally 100 μg/ml P100 membrane fraction) in 0.05M carbonate buffer pH9.6. Nonspecific binding was blocked using 200 μl/well, 2% Marvel/PBS for 2 hours at 37° C. prior to incubation with dansylated peptides. The plates were washed three times with PBS/0.05% Tween 20 and after each subsequent incubation step. […] A buffer blank control was included to ensure that background binding to plastic was not due to the antibodies used in the assay system. […] The plates were then incubated with an anti-mouse λ-HRP conjugated antibody (Southern Biotech 1060-05) at a 1:10,000 dilution in blocking solution, 100 μl/well for 1 hour at room temperature. Plates were developed using 75 μl/well Bionostics TMB substrate and incubated for approximately 10 minutes. The developing reaction was stopped using Bionostics Red Stop solution (25 μl/well), and the optical density of the plates was read at 650 nm.
# [2] = Drug potency, peptide loading and size of coacervated particles; type: physicochemical; settings: formulation 1 particles (coacervation), blend
# [3] = HAX42 peptides, ratio to ZElan021 (arbitrary 1.00)
# [4] = HAX42 peptides, ratio to ZElan021 (arbitrary 1.00), first 50 μg/ml column
# [5] = HAX42 peptides, ratio to ZElan021 (arbitrary 1.00), second 50 μg/ml column
# [6] = PAX2 peptides, ratio to ZElan021 (HAX42 = 1.00), first 20 μg/ml column
# [7] = PAX2 peptides, ratio to ZElan021 (HAX42 = 1.00), first 50 μg/ml column
# [8] = PAX2 peptides, ratio to ZElan021 (HAX42 = 1.00), second 50 μg/ml column
# [9] = PAX2 peptides, ratio to ZElan021 (HAX42 = 1.00), second 20 μg/ml column
molecule,measurement,setting,value
CC(C)[C@H](NC(=O)[C@H](CCCCN)NC(=O)[C@H](CCCNC(=N)N)NC(=O)[C@@H](N)CCCCNS(=O)(=O)c1cccc2c(N(C)C)cccc12)C(=O)N[C@@H](Cc1ccccc1)C(=O)N[C@@H](CC(N)=O)C(=O)N[C@@H](CCCNC(=N)N)C(=O)N[C@@H](CCCNC(=N)N)C(=O)N[C@@H](CCCNC(=N)N)C(=O)N1CCC[C@H]1C(=O)N[C@@H](CO)C(N)=O [ZElan065] (H-K(Dansyl)RKVFNRRRPS-NH2),Binding value at 20 μg/ml,[1]; [3],0.00
same,Binding value at 50 μg/ml,[1]; [4],0.54
same,Binding value at 50 μg/ml,[1]; [5],0.30
"CN(C)c1cccc2c(S(=O)(=O)NCCCC[C@H](N)C(=O)N[C@@H](CC(N)=O)C(=O)N[C@@H](CCCNC(=N)N)C(=O)N[C@@H](CCCNC(=N)N)C(=O)N[C@@H](CCCNC(=N)N)C(=O)N3CCC[C@H]3C(=O)N[C@@H](CO)C(N)=O)cccc12 [ZElan067, H2N-K(dns)NRRRPS-CONH2] (H-K(Dansyl)NRRRPS-NH2)",Binding value at 20 μg/ml,[1]; [3],0.08
same,Binding value at 50 μg/ml,[1]; [4],0.52
same,Binding value at 50 μg/ml,[1]; [5],0.40
CC(C)C[C@H](NC(=O)[C@H](C)NC(=O)[C@H](Cc1c[nH]cn1)NC(=O)[C@H](CC(=O)O)NC(=O)[C@H](CO)NC(=O)[C@@H](N)CCCCNS(=O)(=O)c1cccc2c(N(C)C)cccc12)C(=O)NCC(=O)N[C@H](C(=O)N[C@@H](CC(N)=O)C(=O)N[C@@H](CC(C)C)C(=O)N[C@@H](CCCNC(=N)N)C(=O)N[C@@H](CO)C(=O)N[C@@H](CC(=O)O)C(=O)N[C@@H](CC(N)=O)C(=O)N[C@@H](C)C(=O)N[C@@H](CCCCN)C(=O)N[C@@H](CCC(=O)O)C(=O)N1CCC[C@H]1C(=O)NCC(=O)N[C@@H](CC(=O)O)C(=O)N[C@@H](Cc1ccc(O)cc1)C(=O)N[C@@H](CC(N)=O)C(=O)N[C@@H](CS)C(=O)N[C@@H](CS)C(=O)NCC(=O)N[C@@H](CC(N)=O)C(=O)NCC(=O)N[C@@H](CC(N)=O)C(=O)N[C@@H](CO)C(=O)N[C@H](C(N)=O)[C@@H](C)O)[C@@H](C)O [ZElan070] (H-K(Dansyl)SDHALGTNLRSDNAKEPGDYNCCGNGNST-NH2),Binding value at 20 μg/ml,[1]; [3],0.59
same,Binding value at 50 μg/ml,[1]; [4],0.97
same,Binding value at 50 μg/ml,[1]; [5],0.39
CC(C)C[C@H](NC(=O)[C@H](CC(N)=O)NC(=O)[C@@H](N)CCCCNS(=O)(=O)c1cccc2c(N(C)C)cccc12)C(=O)N[C@@H](CCCNC(=N)N)C(=O)N[C@@H](CO)C(=O)N[C@@H](CC(=O)O)C(=O)N[C@@H](CC(N)=O)C(=O)N[C@@H](C)C(=O)N[C@@H](CCCCN)C(=O)N[C@@H](CCC(=O)O)C(=O)N1CCC[C@H]1C(=O)NCC(=O)N[C@@H](CC(=O)O)C(=O)N[C@@H](Cc1ccc(O)cc1)C(=O)N[C@@H](CC(N)=O)C(=O)N[C@@H](CS)C(=O)N[C@@H](CS)C(=O)NCC(=O)N[C@@H](CC(N)=O)C(=O)NCC(=O)N[C@@H](CC(N)=O)C(=O)N[C@@H](CO)C(=O)N[C@H](C(=O)NCC(=O)N[C@@H](CCCNC(=N)N)C(=O)N[C@@H](CCCCN)C(=O)N[C@H](C(=O)N[C@@H](Cc1ccccc1)C(=O)N[C@@H](CC(N)=O)C(=O)N[C@@H](CCCNC(=N)N)C(N)=O)C(C)C)[C@@H](C)O [ZElan071] (H-K(Dansyl)NLRSDNAKEPGDYNCCGNGNSTGRKVFNR-NH2),Binding value at 50 μg/ml,[1]; [4],0.89
same,Binding value at 50 μg/ml,[1]; [5],0.75
CC[C@H](C)[C@H](NC(=O)[C@H](C)NC(=O)[C@H](CO)NC(=O)[C@@H]1CCCN1C(=O)[C@H](CCCNC(=N)N)NC(=O)[C@H](CCCNC(=N)N)NC(=O)[C@H](CC(N)=O)NC(=O)[C@H](Cc1ccccc1)NC(=O)[C@@H](NC(=O)[C@H](CCCCN)NC(=O)[C@H](CCCNC(=N)N)NC(=O)CNC(=O)[C@@H](NC(=O)[C@H](CO)NC(=O)[C@H](CC(N)=O)NC(=O)CNC(=O)[C@H](CC(N)=O)NC(=O)CNC(=O)[C@H](CS)NC(=O)[C@H](CS)NC(=O)[C@H](CC(N)=O)NC(=O)[C@H](Cc1ccc(O)cc1)NC(=O)[C@H](CC(=O)O)NC(=O)CNC(=O)[C@@H]1CCCN1C(=O)[C@@H](N)CCCCNS(=O)(=O)c1cccc2c(N(C)C)cccc12)[C@@H](C)O)C(C)C)C(=O)N1CCC[C@H]1C(=O)N[C@H](C(N)=O)[C@@H](C)O [ZElan072] (H-K(Dansyl)PGDYNCCGNGNSTGRKVFNRRPSAIPT-NH2),Binding value at 20 μg/ml,[1]; [3],0.83
same,Binding value at 50 μg/ml,[1]; [4],0.61
same,Binding value at 50 μg/ml,[1]; [5],0.88
CC(C)C[C@H](NC(=O)[C@H](CCCNC(=N)N)NC(=O)[C@H](CCCNC(=N)N)NC(=O)[C@H](CC(N)=O)NC(=O)[C@H](Cc1c[nH]cn1)NC(=O)[C@H](CO)NC(=O)[C@H](CO)NC(=O)[C@@H](N)CCCCNS(=O)(=O)c1cccc2c(N(C)C)cccc12)C(=O)N[C@@H](CCCNC(=N)N)C(=O)N[C@@H](C)C(=O)N[C@@H](CCCNC(=N)N)C(N)=O [ZElan081] (H-K(Dansyl)SSHNRRLRAR-NH2),Binding value at 20 μg/ml,[1]; [6],0.01
same,Binding value at 50 μg/ml,[1]; [7],0.89
same,Binding value at 50 μg/ml,[1]; [8],0.47
CC(C)C[C@H](NC(=O)[C@H](CCCNC(=N)N)NC(=O)[C@H](CCCNC(=N)N)NC(=O)[C@H](CC(N)=O)NC(=O)[C@H](Cc1c[nH]cn1)NC(=O)[C@H](CO)NC(=O)[C@H](CO)NC(=O)[C@@H](N)CCCCNS(=O)(=O)c1cccc2c(N(C)C)cccc12)C(=O)N[C@@H](CCCNC(=N)N)C(=O)N[C@H](C(=O)N[C@@H](C)C(N)=O)[C@@H](C)O [ZElan082] (H-K(Dansyl)SSHNRRLRTA-NH2),Binding value at 20 μg/ml,[1]; [6],0.00
same,Binding value at 50 μg/ml,[1]; [7],0.92
same,Binding value at 50 μg/ml,[1]; [8],0.40
CC(C)C[C@H](NC(=O)[C@H](CCCNC(=N)N)NC(=O)[C@H](CO)NC(=O)[C@@H](NC(=O)[C@H](CCCCN)NC(=O)[C@H](CC(N)=O)NC(=O)[C@H](CCCNC(=N)N)NC(=O)[C@@H](NC(=O)[C@H](CC(N)=O)NC(=O)[C@H](CCCNC(=N)N)NC(=O)[C@@H](N)CCCCNS(=O)(=O)c1cccc2c(N(C)C)cccc12)[C@@H](C)O)[C@@H](C)O)C(=O)N[C@@H](CO)C(=O)N[C@@H](C)C(=O)N[C@@H](CC(N)=O)C(=O)N1CCC[C@H]1C(=O)N[C@@H](Cc1c[nH]cn1)C(=O)N[C@@H](CCCNC(=N)N)C(=O)N[C@@H](CO)C(=O)N[C@@H](Cc1c[nH]cn1)C(=O)N[C@@H](CCCNC(=N)N)C(N)=O [ZElan084] (H-K(Dansyl)RNTRNKTSRLSANPHRSHR-NH2),Binding value at 20 μg/ml,[1]; [9],0.93
same,Binding value at 50 μg/ml,[1]; [8],0.77
H-K(Dansyl)GRNHDVVSSNTHKSYRSPRSASYPRLSNDRTDRTEPAPSS-NH2 [ZElan083],Binding value at 20 μg/ml,[1]; [6],0.43
same,Binding value at 20 μg/ml,[1]; [9],0.63
same,Binding value at 50 μg/ml,[1]; [8],0.88
H-K(Dansyl)SDHALGTNLRSDNAKEPGDYNCCGNGNSTGRKVFNRRRPSAIPT-NH2 (cysteines drawn unpaired) [ZElan021],Binding value at 20 μg/ml,[1]; [3],1.00
same,Binding value at 25 μg/ml,"[1]; HAX42 peptides, ratio to ZElan021 (arbitrary 1.00), first 25 μg/ml column",1.00
same,Binding value at 50 μg/ml,[1]; [4],1.00
same,Binding value at 25 μg/ml,"[1]; HAX42 peptides, ratio to ZElan021 (arbitrary 1.00), second 25 μg/ml column",1.00
same,Binding value at 50 μg/ml,[1]; [5],1.00
same,Binding value at 25 μg/ml,"[1]; HAX42 peptides, ratio to ZElan021 (arbitrary 1.00), third 25 μg/ml column",1.00
H-K(Dansyl)STPPSREAYSRPYSVDSDSDTNAKHSSHNRRLRTRSRPNG-NH2 [ZElan018],Binding value at 20 μg/ml,[1]; [6],−0.33
same,Binding value at 50 μg/ml,[1]; [7],0.95
SPCGGSWGRFMQGGLFGGRTDGCGAHRNRTSASLEPPSSDY [SNi34],Insulin (insulin potency),[2]; coated with the named peptide,61.5 mg/g
same,Peptide (level of peptide coated onto the particles),[2]; measured by fluorescence,4.03 µL/mg
